Data: patent publication US20250009743A1, “METHODS OF TREATING CANCERS USING STING AGONISTS” (Dana-Farber Cancer Institute, Inc., priority 2021, published 2025)

How the values were obtained:
DF101 PDX = assay: DF101 ovarian PDX in NSG mice; assay type: in vivo, human
Description: (§1) For the PDX in vivo experiments, about 3×10^6 PDX tumor cells were mixed with 3×10^6 human bone marrow mononuclear cells in serum-free DMEM/F12 medium containing 50% Matrigel (CAT #70001, […] Technology) and intraperitoneally transplanted into NOD/SCID IL2Rgnull mice (NSG, The Jackson Laboratory). About three weeks after injection, PDX-bearing mice were equivalently divided into 4 groups according to the luminescent intensity and treated with vehicle control, olaparib, MSA-2 and olaparib in combination with MSA-2 using the same dosing and schedule that have been described above. Ascites was harvested for analysis after three weeks' treatment.
Tumors were chopped and digested in collagenase buffer as described previously (Ding et al., 2018 Cell Rep 25, 2972-2980.e2975). Single cell suspensions of tumor and ascites were obtained by filtering through 70 um strainers and treated with 1× eBioscience RBC lysis buffer (Thermo Fisher) before staining. Single cells suspensions were incubated with LIVE/DEAD Fixable Aqua Dead Cell Stain (Life Technologies, Cat #L34965) for 30 min and then blocked with anti-CD16/32 (Biolegend, clone 93) for 20 min on ice. Samples were then incubated with appropriate antibodies for 30 min on ice. Foxp3 staining buffer set (eBioscience, Cat #00-5523-00) was applied for intracellular markers staining. For the intracellular cytokine analysis, cells were stimulated with Leukocyte Activation Cocktail (BD Biosciences, Cat #550583) at 37° C. for 4-6 hours prior to FACS staining. […] Flow cytometry was performed on an LSRII (BD Biosciences) or Fortessa HTS (BD Biosciences) at DFCI Flow Cytometry Core, and all the data were analyzed using FlowJo software.

[1] = system: myeloid cells (CD45^+CD11b^+) in ascites of PBM-R tumor-bearing mice; assay: Myeloid cells in ascites of PBM-R tumor-bearing mice (transcriptome, flow cytometry); assay type: in vivo, mouse; conditions: 24 hours treatment
Experimental: (§2) Tumors were chopped and digested in collagenase buffer as described previously (Ding et al., 2018 Cell Rep 25, 2972-2980.e2975). Single cell suspensions of tumor and ascites were obtained by filtering through 70 um strainers and treated with 1× eBioscience RBC lysis buffer (Thermo Fisher) before staining. Single cells suspensions were incubated with LIVE/DEAD Fixable Aqua Dead Cell Stain (Life Technologies, Cat #L34965) for 30 min and then blocked with anti-CD16/32 (Biolegend, clone 93) for 20 min on ice. Samples were then incubated with appropriate antibodies for 30 min on ice. Foxp3 staining buffer set (eBioscience, Cat #00-5523-00) was applied for intracellular markers staining. For the intracellular cytokine analysis, cells were stimulated with Leukocyte Activation Cocktail (BD Biosciences, Cat #550583) at 37° C. for 4-6 hours prior to FACS staining. The following antibodies were used in this study: antibodies were purchased from BioLegend unless otherwise indicated: CD45 (clone 30-F11), CD3ε (clone 145-2C11), CD4 (clone RM4-5), CD8 (clone 53-6.7), CD44 (clone IM7), CD62L (MEL-14), CD25 (PC61), IFNγ (clone XMG1.2), TNFα (clone MP6-XT22), CD11b (clone M1/70), CD11c […], F4/80 (clone BM8), Ly-6C (clone HK1.4), Ly-6G (clone 1A8), MHC-II (clone M5/114.15.2), CD80 (clone 16-10A1), CD86 (clone GL-1), MHC-I (clone KH114), FoxP3 (clone FJK-16 s; eBioscience), Phospho-IRF-3 (Ser396) (clone D601M, Cell signaling technology) and Phospho-TBK1/NAK (Ser172) (clone D52C2, Cell signaling technology). The following human antibodies were used in this study: cell surface markers includes CD45 (clone H130), CD11b (clone M1/70), CD11c (clone Bu15), CD80 (clone 2D10), CD86 (clone IT2.2), CD14 (clone 63D3), CD15 […], HLA-DR (clone L243) and HLA-A,B,C (clone W6/32); intracellular markers include CD163 (clone GHI/61), CD68 (clone Y1/82A) and CD206 (clone 15-2). Flow cytometry was performed on an LSRII (BD Biosciences) or Fortessa HTS (BD Biosciences) at DFCI Flow Cytometry Core, and all the data were analyzed using FlowJo software.
Transcriptome analysis of myeloid cells: about 1 x10^6 PBM-R tumor cells were intraperitoneally injected to FVB/NJ mice. About 2-3 weeks after injection, mice were grouped and treated with control, olaparib, MSA-2 and […] for 24 hrs. After treatment, myeloid cells (CD45^+CD11b^+) were isolated from the ascites of each mouse (n=3 per group). Total RNAs was isolated and sequenced on the Ion Torrent platform (Thermo Fisher) that described above using the Ion AmpliSeq Transcriptome Mouse Gene Expression Panel. Gene ontology (GO) analysis of DEGs was performed using topGO package in R. GSEA analysis was performed as described above. Heat maps illustrating changes in gene expression were generated using the heatmap.3 package in R.

DF86 PDX = assay: DF86 ovarian PDX with human bone marrow monocytes in NSG mice; assay type: in vivo
Description: as §1, §2

BP-sgSTING tumors = assay: BP-sgSTING tumor growth and survival in FVB mice; assay type: in vivo, mouse; conditions: olaparib 50 mg/kg i.p. q.d.
Experimental: Primary mammary tumor cells for orthotopic injection were resuspended in serum-free DMEM containing 40% matrigel (Corning). 5×10^5 tumor cells in a total volume of 100 μL were injected orthotopically into the thoracic mammary fat pads of 8-week-old female FVB/NJ mice (The Jackson Laboratory). Tumor growth was examined by measuring the greatest longitudinal diameter (length) and the greatest transverse diameter (width) with digital calipers, and tumor volume was calculated by use of the modified ellipsoid formula (0.52×length×width2). Tumors were measured 2-3 times a week. All tumor measurements within single cohorts were performed by the same researcher. Tumor-bearing mice were randomized prior to start of treatment. Drug treatments were started when mean tumor volumes approximated 50-100 mm3. Mice were euthanized by CO2 inhalation when tumor volumes met humane endpoints described in the IACUC (20 mm diameter) protocols or upon severe health deterioration.
Olaparib (MedChem, #HY-10162) was prepared by diluting 100 mg/l mL stocks in DMSO with 10% (2-Hydroxypropyl)-β-cyclodextrin (HPCD, MedChem, #101103) in PBS and administered immediately after drug preparation by intraperitoneal (i.p.) injection at a dose of 50 mg/kg body weight daily. DMXAA (Sigma, #D5817) was reconstituted at 10 mg/mL in 7.5% NaHCO3(Gibco). […]

Row | SMILES | tumor response compared to DF86 PDX tumors (DF101 PDX; FIG. 26) | TAM phenotype in ascites (DF101 PDX; FIG. 26C-E) | proportion of TAMs in ascites (DF101 PDX; FIG. 26C-E) | cGAS-STING pathway gene signature in myeloid cells ([1]; vs control mice) | expression of M1-like/anti-tumorigenic genes ([1]; FIG. 21D) | expression of genes associated with antigen processing and presentation ([1]; FIG. 21D) | expression of genes associated with pro-tumorigenic M2 polarization ([1]; FIG. 21D) | population of TAMs in ascites ([1]; FIG. 21F) | population of CD11b^+CD11c^+ myeloid DCs in ascites ([1]; FIG. 21G) | proportion of TAMs in ascites (DF86 PDX; FIG. 25H) | M1/M2 ratio in ascites (DF86 PDX; FIG. 25I) | CD14^+ myeloid DCs (CD14^+HLA-DR^+) (DF86 PDX; FIG. 25J) | tumor burden (fold change of intensity of luciferase signal) (DF86 PDX; compared to control or olaparib treated mice, FIG. 25G) | BP-sgSTING tumor growth (BP-sgSTING tumors; DMXAA 10 mg/kg i.p. weekly, FIG. 11H) | BP-sgSTING tumor growth (BP-sgSTING tumors; DMXAA 10 mg/kg intratumoral one dose per week, FIG. 12B)
1 | COc1cc2cc(C(=O)CCC(=O)O)sc2cc1OC [MSA-2] | less responsive | reprogramed M2-like TAMs to M1-like | greatly decreased | significantly higher enrichment scores | strongly up-regulated | strongly stimulated | inhibited | decreased | increased | decreased proportion of TAMs | increased M1/M2 ratio | significantly increased | significantly decreased |  | 
2 | Cc1ccc2c(=O)c3cccc(CC(=O)O)c3oc2c1C [DMXAA, 5,6-dimethyl-xanthenone-4-acetic acid] |  |  |  |  |  |  |  |  |  |  |  |  |  | no significant impact | completely refractory
